Data reported in PubChem BioAssay AID274 (DTP/NCI, 2004).
“And” between values parts separate entries of the source, which are not always exact repeats. Identical values can stand only once. Toxic doses and inconclusive results are not listed.

Test system: BDF1 mice, Lewis lung carcinoma iv, survival T/C
Assay: NCI In Vivo Anticancer Drug Screen. Data for tumor model Lewis Lung Carcinoma (intravenous) in B6D2F1 (BDF1) mice
Conditions: endpoint: median survival time, higher = longer survival
Method: The antitumor activity of compounds was measured in mice bearing transplantable tumors. Survival or tumor size were measured and the results are expressed as the measurement made in the treated group (T) divided by the measurement made in the vehicle treated control group (C). The tumor model used in this assay is Lewis Lung Carcinoma (intravenous) in B6D2F1 (BDF1) mice

[1] = dose: 6.25 mg/kg/injection, schedule: Q01DX009 (ip), vehicle: saline
[2] = dose: 12.5 mg/kg/injection, schedule: Q01DX009 (ip), vehicle: saline
[3] = dose: 25.0 mg/kg/injection, schedule: Q01DX009 (ip), vehicle: Klucel (hydroxypropylcellulose) (HPC)
[4] = dose: 50.0 mg/kg/injection, schedule: Q01DX009 (ip), vehicle: Klucel (hydroxypropylcellulose) (HPC)
[5] = dose: 100.0 mg/kg/injection, schedule: Q01DX009 (ip), vehicle: Klucel (hydroxypropylcellulose) (HPC)
[6] = dose: 200.0 mg/kg/injection, schedule: Q01DX009 (ip), vehicle: Klucel (hydroxypropylcellulose) (HPC)

CS(=O)(=O)[O-].CS(=O)(=O)[O-].NC1CCCCC1N.[Pt+4] (centres undefined)
T/C (dose: 0.31 mg/kg/injection, schedule: Q01DX009 (ip), vehicle: dextrose): 113 % of control | T/C (dose: 0.62 mg/kg/injection, schedule: Q01DX009 (ip), vehicle: dextrose): 98 % of control | T/C (dose: 1.25 mg/kg/injection, schedule: Q01DX009 (ip), vehicle: dextrose): 91 % of control

CCS(=O)(=O)OCCCCOS(=O)(=O)CC
T/C (dose: 3.13 mg/kg/injection, schedule: Q01DX009 (ip), vehicle: saline): 99 % of control | T/C [1]: 103 % of control

O=C1c2ccccc2C(=O)c2c(NCCNCCO)ccc(NCCNCCO)c21
T/C (dose: 1.0 mg/kg/injection, schedule: Q01DX005 (ip), vehicle: saline with Tween-80): 119 % of control | T/C (dose: 1.0 mg/kg/injection, schedule: Q01DX009 (ip), vehicle: saline with Tween-80): 100 % of control | T/C (dose: 2.0 mg/kg/injection, schedule: Q01DX005 (ip), vehicle: saline): 102 % of control | T/C (dose: 2.0 mg/kg/injection, schedule: Q01DX009 (ip), vehicle: saline with Tween-80): 110 % of control | T/C (dose: 4.0 mg/kg/injection, schedule: Q01DX005 (ip), vehicle: saline with Tween-80): 109 % of control | T/C (dose: 4.0 mg/kg/injection, schedule: Q01DX009 (ip), vehicle: saline with Tween-80): 102 % of control

C[CH2][Sn]([CH2]C)([O]S(C)(=O)=O)[O]S(C)(=O)=O
T/C (dose: 0.78 mg/kg/injection, schedule: Q01DX009 (ip), vehicle: saline): 98 % of control | T/C (dose: 1.56 mg/kg/injection, schedule: Q01DX009 (ip), vehicle: saline): 105 % of control | T/C (dose: 3.12 mg/kg/injection, schedule: Q01DX009 (ip), vehicle: saline): 93 % of control | T/C [1]: 92 % of control | T/C [2]: 93 % of control

CCCCCCCCCCCCCCCCCCNC(=S)N/N=C/c1ccc(Cl)cc1Cl
T/C (dose: 100.0 mg/kg/injection, schedule: Q01DX009 (ip), vehicle: saline with Tween-80): 110 % of control | T/C (dose: 200.0 mg/kg/injection, schedule: Q01DX009 (ip), vehicle: saline with Tween-80): 108 % of control | T/C (dose: 400.0 mg/kg/injection, schedule: Q01DX009 (ip), vehicle: saline with Tween-80): 93 % of control

C=C1C(=O)OC2C3OC(C)(CCC(O)C3COC(C)=O)CC(OC(=O)/C(=C/C)COC(C)=O)C12 (centres undefined)
T/C (dose: 0.75 mg/kg/injection, schedule: Q01DX009 (ip), vehicle: suspension in saline): 112 % of control | T/C (dose: 1.5 mg/kg/injection, schedule: Q01DX009 (ip), vehicle: suspension in saline): 103 % of control | T/C (dose: 3.0 mg/kg/injection, schedule: Q01DX009 (ip), vehicle: suspension in saline): 89 % of control

CS(=O)(=O)OCCCNCCCOS(C)(=O)=O
T/C (dose: 5.0 mg/kg/injection, schedule: Q01DX009 (ip), vehicle: saline): 96 % of control | T/C (dose: 10.0 mg/kg/injection, schedule: Q01DX009 (ip), vehicle: saline): 106 % of control and 114 % of control | T/C (dose: 20.0 mg/kg/injection, schedule: Q01DX009 (ip), vehicle: saline): 108 % of control | T/C (dose: 40.0 mg/kg/injection, schedule: Q01DX009 (ip), vehicle: saline): 113 % of control

CC(=O)NC(CCc1ccc(Cl)c(Cl)c1)c1cccc(O)c(=O)c1 (centres undefined)
T/C (dose: 6.25 mg/kg/injection, schedule: Q01DX009 (ip), vehicle: Klucel (hydroxypropylcellulose) (HPC)): 97 % of control | T/C (dose: 12.5 mg/kg/injection, schedule: Q01DX009 (ip), vehicle: Klucel (hydroxypropylcellulose) (HPC)): 99 % of control | T/C [3]: 95 % of control | T/C [4]: 96 % of control

CCCCC(=O)OCC(=O)[C@]1(O)Cc2c(O)c3c(c(O)c2[C@@H](OC2CC(NC(=O)C(F)(F)F)C(O)C(C)O2)C1)C(=O)c1c(OC)cccc1C3=O (some centres undefined)
T/C (dose: 4.0 mg/kg/injection, schedule: Q01DX009 (ip), vehicle: distilled water + Tween-80): 100 % of control | T/C (dose: 8.0 mg/kg/injection, schedule: Q01DX009 (ip), vehicle: distilled water + Tween-80): 102 % of control | T/C (dose: 16.0 mg/kg/injection, schedule: Q01DX009 (ip), vehicle: distilled water + Tween-80): 121 % of control

COc1cc(OC)c(OC)cc1/C=C\c1ccnc2ccccc12
T/C [3]: 113 % of control | T/C [4]: 105 % of control | T/C [5]: 100 % of control | T/C [6]: 107 % of control

O=C1CC2(C(=O)N1CN1CCOCC1)c1ccccc1-c1ccccc12
T/C [4]: 94 % of control | T/C [5]: 98 % of control | T/C [6]: 101 % of control | T/C (dose: 400.0 mg/kg/injection, schedule: Q01DX009 (ip), vehicle: Klucel (hydroxypropylcellulose) (HPC)): 112 % of control

Nc1nc2n[nH]nc2c(=O)[nH]1
T/C (dose: 25.0 mg/kg/injection, schedule: Q01DX009 (ip), vehicle: suspension in saline): 93 % of control | T/C (dose: 50.0 mg/kg/injection, schedule: Q01DX009 (ip), vehicle: suspension in saline): 98 % of control

COCC(O)Cn1ccnc1[N+](=O)[O-] (centres undefined)
T/C (dose: 12.5 mg/kg/injection, schedule: Q01DX009 (ip), vehicle: water): 96 % of control | T/C (dose: 25.0 mg/kg/injection, schedule: Q01DX009 (ip), vehicle: water): 92 % of control | T/C (dose: 50.0 mg/kg/injection, schedule: Q01DX009 (ip), vehicle: water): 96 % of control | T/C (dose: 100.0 mg/kg/injection, schedule: Q01DX009 (ip), vehicle: water): 100 % of control | T/C (dose: 200.0 mg/kg/injection, schedule: Q01DX009 (ip), vehicle: water): 92 % of control | T/C (dose: 400.0 mg/kg/injection, schedule: Q01DX009 (ip), vehicle: water): 96 % of control

CN(C)/N=N/c1nc[nH]c1C(N)=O
T/C (dose: 16.0 mg/kg/injection, schedule: Q01DX009 (ip), vehicle: Klucel (hydroxypropylcellulose) (HPC)): 102 % of control | T/C [3]: 150 % of control | T/C (dose: 32.0 mg/kg/injection, schedule: Q01DX009 (ip), vehicle: Klucel (hydroxypropylcellulose) (HPC)): 109 % of control | T/C [4]: 118 % of control | T/C (dose: 128.0 mg/kg/injection, schedule: Q01DX009 (ip), vehicle: Klucel (hydroxypropylcellulose) (HPC)): 117 % of control | T/C (dose: 256.0 mg/kg/injection, schedule: Q01DX009 (ip), vehicle: Klucel (hydroxypropylcellulose) (HPC)): 123 % of control

Nc1ccn([C@@H](C=O)O[C@@H](C=O)CO)c(=O)n1
T/C [1]: 96 % of control | T/C [2]: 105 % of control | T/C (dose: 25.0 mg/kg/injection, schedule: Q01DX009 (ip), vehicle: saline): 100 % of control | T/C (dose: 50.0 mg/kg/injection, schedule: Q01DX009 (ip), vehicle: saline): 96 % of control | T/C (dose: 100.0 mg/kg/injection, schedule: Q01DX009 (ip), vehicle: saline): 97 % of control

C[C@@]12C(=O)OC(=O)[C@]1(C)[C@H]1CC[C@@H]2O1
T/C (dose: 0.06 mg/kg/injection, schedule: Q01DX009 (ip), vehicle: Klucel (hydroxypropylcellulose) (HPC)): 104 % of control | T/C (dose: 0.12 mg/kg/injection, schedule: Q01DX009 (ip), vehicle: Klucel (hydroxypropylcellulose) (HPC)): 108 % of control | T/C (dose: 0.25 mg/kg/injection, schedule: Q01DX009 (ip), vehicle: Klucel (hydroxypropylcellulose) (HPC)): 95 % of control | T/C (dose: 0.5 mg/kg/injection, schedule: Q01DX009 (ip), vehicle: Klucel (hydroxypropylcellulose) (HPC)): 108 % of control | T/C (dose: 1.0 mg/kg/injection, schedule: Q01DX009 (ip), vehicle: Klucel (hydroxypropylcellulose) (HPC)): 97 % of control

COc1ccc(-c2c(C)c(C(=O)O)nc(-c3ccc4c(O)c(OC)c5c(c4n3)=NC(C)(C)N=5)c2N)c(O)c1OC
T/C (dose: 10.0 mg/kg/injection, schedule: Q01DX009 (ip), vehicle: saline with Tween-80): 113 % of control | T/C (dose: 20.0 mg/kg/injection, schedule: Q01DX009 (ip), vehicle: saline with Tween-80): 103 % of control | T/C (dose: 40.0 mg/kg/injection, schedule: Q01DX009 (ip), vehicle: saline with Tween-80): 98 % of control

C[C@]12CC[C@H]3[C@@H](CCC4=C[C@@H](OC5OCC(OC6OC(CO)C(O)C(O)C6O)C(O)C5O)CC[C@@]43C=O)[C@@]1(O)CCC2C1=CC(=O)OC1 (some centres undefined)
T/C (dose: 0.16 mg/kg/injection, schedule: Q01DX009 (ip), vehicle: Klucel (hydroxypropylcellulose) (HPC)): 99 % of control | T/C (dose: 0.31 mg/kg/injection, schedule: Q01DX009 (ip), vehicle: Klucel (hydroxypropylcellulose) (HPC)): 100 % of control | T/C (dose: 0.63 mg/kg/injection, schedule: Q01DX009 (ip), vehicle: Klucel (hydroxypropylcellulose) (HPC)): 102 % of control | T/C (dose: 1.25 mg/kg/injection, schedule: Q01DX009 (ip), vehicle: Klucel (hydroxypropylcellulose) (HPC)): 99 % of control | T/C (dose: 2.5 mg/kg/injection, schedule: Q01DX009 (ip), vehicle: Klucel (hydroxypropylcellulose) (HPC)): 122 % of control | T/C (dose: 5.0 mg/kg/injection, schedule: Q01DX009 (ip), vehicle: Klucel (hydroxypropylcellulose) (HPC)): 122 % of control
